Test results as given in patent publication US12540150B1, “Fluorogenic probe using a Mislow-Evans rearrangement for real-time imaging of hydrogen peroxide” (University of Pittsburgh—Of the Commonwealth System of …, priority 2020, dated 2026).
Values joined by “and” are separate entries in the source; they are usually repeats but may differ in a detail not shown here. Equal values may be shown once.

Assay: Kinetics of the reaction of 1 with H2O2

Oc1ccc2c(c1)Oc1cc(O/C=C/C[Se]c3ccccc3)ccc1[C@@]21OCc2ccccc21 [Compound 1, (S,E)-6′-((3-(Phenylselanyl)prop-1-en-1-yl)oxy)-3H-spiro[isobenzofuran-1,9′-xanthen]-3′-ol]
rate of reaction with H2O2 relative to boronate-based probes: seven times faster | second order rate constant k (5% MeCN in pH 7.5 HEPES buffer 50 mM, [1]=1.7 μM): 9.82 ± 1.11 M⁻¹ s⁻¹ | Slope k′ ([H2O2] 0.625 mM): 0.00251 s⁻¹ | Slope k′ ([H2O2] 1.25 mM): 0.01359 s⁻¹ | Slope k′ ([H2O2] 2.5 mM): 0.02432 s⁻¹ | F-F0 (515 nm) ([H2O2] = 0.625 mM, 30 s): 145,691 and 101,161 and 83,026 | [1] ([H2O2] = 0.625 mM, 30 s): 1.3453 µM and 1.4596 µM and 1.5061 µM | F-F0 (515 nm) ([H2O2] = 0.625 mM, 90 s): 220,196 and 277,036 and 236,883 | [1] ([H2O2] = 0.625 mM, 90 s): 1.1541 µM and 1.0082 µM and 1.1113 µM | F-F0 (515 nm) ([H2O2] = 0.625 mM, 150 s): 301,900 and 391,059 and 348,470 | [1] ([H2O2] = 0.625 mM, 150 s): 0.9444 µM and 0.7157 µM and 0.8249 µM | F-F0 (515 nm) ([H2O2] = 0.625 mM, 210 s): 355,049 and 458,596 and 422,910 | [1] ([H2O2] = 0.625 mM, 210 s): 0.8081 µM and 0.5424 µM and 0.6339 µM | F-F0 (515 nm) ([H2O2] = 0.625 mM, 270 s): 390,358 and 499,861 and 473,964 | [1] ([H2O2] = 0.625 mM, 270 s): 0.7175 µM and 0.4365 µM and 0.5029 µM | F-F0 (515 nm) ([H2O2] = 0.625 mM, 330 s): 421,561 and 522,358 and 509,584 | [1] ([H2O2] = 0.625 mM, 330 s): 0.6374 µM and 0.3787 µM and 0.4115 µM | F-F0 (515 nm) ([H2O2] = 0.625 mM, 390 s): 450,025 and 534,705 and 536,252 | [1] ([H2O2] = 0.625 mM, 390 s): 0.5643 µM and 0.3470 µM and 0.3431 µM | F-F0 (515 nm) ([H2O2] = 0.625 mM, 450 s): 477,638 and 541,922 and 555,207 | [1] ([H2O2] = 0.625 mM, 450 s): 0.4935 µM and 0.3285 µM and 0.2944 µM | F-F0 (515 nm) ([H2O2] = 0.625 mM, 510 s): 501,767 and 546,290 and 569,868 | [1] ([H2O2] = 0.625 mM, 510 s): 0.4316 µM and 0.3173 µM and 0.2568 µM | F-F0 (515 nm) ([H2O2] = 0.625 mM, 570 s): 524,121 and 550,122 and 581,518 | [1] ([H2O2] = 0.625 mM, 570 s): 0.3742 µM and 0.3075 µM and 0.2269 µM | F-F0 (515 nm) ([H2O2] = 0.625 mM, 630 s): 543,908 and 551,490 and 591,076 | [1] ([H2O2] = 0.625 mM, 630 s): 0.3234 µM and 0.3040 µM and 0.2024 µM | F-F0 (515 nm) ([H2O2] = 0.625 mM, 690 s): 559,985 and 551,741 and 599,176 | [1] ([H2O2] = 0.625 mM, 690 s): 0.2822 µM and 0.3033 µM and 0.1816 µM | F-F0 (515 nm) ([H2O2] = 0.625 mM, 750 s): 570,897 and 553,475 and 603,780 | [1] ([H2O2] = 0.625 mM, 750 s): 0.2542 µM and 0.2989 µM and 0.1698 µM | F-F0 (515 nm) ([H2O2] = 0.625 mM, 810 s): 580,693 and 553,568 and 609,902 | [1] ([H2O2] = 0.625 mM, 810 s): 0.2290 µM and 0.2986 µM and 0.1541 µM | F-F0 (515 nm) ([H2O2] = 0.625 mM, 870 s): 587,536 and 552,326 and 614,108 | F-F0 (515 nm) ([H2O2] = 1.25 mM, 30 s): 255,659 and 258,915 and 225,047 | [1] ([H2O2] = 1.25 mM, 30 s): 1.0631 µM and 1.0547 µM and 1.1417 µM | F-F0 (515 nm) ([H2O2] = 1.25 mM, 90 s): 364,712 and 517,271 and 484,926 | [1] ([H2O2] = 1.25 mM, 90 s): 0.7833 µM and 0.3918 µM and 0.4748 µM | F-F0 (515 nm) ([H2O2] = 1.25 mM, 150 s): 463,364 and 607,290 and 590,662 | F-F0 (515 nm) ([H2O2] = 1.25 mM, 210 s): 514,663 and 641,798 and 639,332 | F-F0 (515 nm) ([H2O2] = 1.25 mM, 270 s): 549,297 and 656,229 and 660,178 | F-F0 (515 nm) ([H2O2] = 1.25 mM, 330 s): 572,635 and 661,539 and 664,254 | F-F0 (515 nm) ([H2O2] = 1.25 mM, 390 s): 589,797 and 665,178 and 666,753 | F-F0 (515 nm) ([H2O2] = 1.25 mM, 450 s): 601,493 and 663,842 and 669,367 | F-F0 (515 nm) ([H2O2] = 1.25 mM, 510 s): 606,377 and 663,608 and 673,539 | F-F0 (515 nm) ([H2O2] = 1.25 mM, 570 s): 612,207 and 662,594 and 675,671 | F-F0 (515 nm) ([H2O2] = 1.25 mM, 630 s): 614,405 and 663,947 and 677,477 | F-F0 (515 nm) ([H2O2] = 1.25 mM, 690 s): 616,203 and 663,123 and 679,640 | F-F0 (515 nm) ([H2O2] = 1.25 mM, 750 s): 616,371 and 663,595 and 679,888
